The text below walks through data of US20050227999A1, “Diarylamine derivatives as calcium channel blockers” (NeuroMed Technologies Inc., priority 2004, published 2005).

Read-outs that look alike come from different tables or passages of the source.

In experiment [1] the target is T1, rat brain N-type calcium channel subunits (α1B+α2δ+β1b cDNA subunits) (Rattus norvegicus, UniProt Q02294).
T1 construct: expressed in transfected cells; host or cells: HEK 293
As to the kind of experiment: N-type calcium channel block, whole cell patch clamp in transfected HEK 293 cells. In kind it is cell-based. The following applies: holding potential −80 mV to +10 mV. As for the experimental part:
N-type calcium channel blocking activity was assayed in human embryonic kidney cells, HEK 293, stably transfected with the rat brain N-type calcium channel subunits (α1B+α2δ+β1b cDNA subunits). Alternatively, N-type calcium channels (α1B+α2δ+β1b cDNA subunits), L-type channels (α1C+δ+β1b cDNA subunits) and P/Q-type channels (α1A+α2δ+β1b cDNA subunits) were transiently expressed in HEK 293 cells. Briefly, cells were cultured in Dulbecco's modified eagle medium (DMEM) supplemented with 10% fetal bovine serum, 200 U/ml penicillin and 0.2 mg/ml streptomycin at 37° C. with 5% CO2. At 85% confluency cells were split with 0.25% trypsin/l mM EDTA and plated at 10% confluency on glass coverslips. At 12 hours the medium was replaced and the cells transiently transfected using a standard calcium phosphate protocol and the appropriate calcium channel cDNA's. Fresh DMEM was supplied and the cells transferred to 28° C./5% CO2. Cells were incubated for 1 to 2 days before cell recording.
Whole cell patch clamp experiments were performed using an Axopatch 200B amplifier (Axon Instruments, Burlingame, Calif.) linked to a personal computer equipped with PCLAMP software. The external and internal recording solutions contained, respectively, 5 mM BaCl2, 10 mM MgCl2, 10 mM HEPES, 40 mM TEACl, 10 mM glucose, 87.5 mM CsCl (pH 7.2) and 108 mM CsMS, 4 mM MgCl2, 9 mM EGTA, 9 mM HEPES (pH 7.2). Currents were typically elicited from a holding potential of −80 mV to +10 mV using Clampex software (Axon Instruments). Typically, currents were first elicited with low frequency stimulation (0.067 Hz) and allowed to stabilize prior to application of the compounds. The compounds were then applied during the low frequency pulse trains for two to three minutes to assess tonic block, and subsequently the pulse frequency was increased to 0.2 Hz to assess frequency dependent block. Data were analyzed using Clampfit (Axon Instruments) and SigmaPlot 4.0 (Jandel Scientific). […]
(In general: Patch clamp records ionic current or voltage across a cell membrane.)

Experiment [2] has as its target T2, human α1G T-type channels (Homo sapiens, UniProt O43497).
T2 construct: expressed in transfected cells
As to the kind of experiment: T-type calcium channel block, patch clamp in HEK cell lines. In kind it is cell-based. As for the experimental part: Standard patch-clamp techniques were employed to identify blockers of T-type currents. Briefly, previously described HEK cell lines stably expressing human α1G T-type channels were used for all the recordings (passage #: 4-20, 37° C., 5% CO2). To obtain T-type currents, plastic dishes containing semi-confluent cells were positioned on the stage of a ZEISS AXIOVERT S100 microscope after replacing the culture medium with external solution (see below). Whole-cell patches were obtained using pipettes (borosilicate glass with filament, O.D.: 1.5 mm, I.D.: 0.86 mm, 10 cm length), fabricated on a SUTTER P-97 puller with resistance values of ˜5 MΩ (see below for internal solution).
In the non-inactivating protocol, the holding potential is set at −110 mV and with a pre-pulse at −100 mV for 1 second prior to the test pulse at 40 mV for 50 ms. […]
Test compounds were dissolved in external solution, 0.1-0.01% DMSO. After ˜10 min rest, they were applied by gravity close to the cell using a WPI microfil tubing. The “non-inactivated” pre-pulse was used to examine the resting block of a compound. The “inactivated” protocol was employed to study voltage-dependent block. However, the initial data shown below were mainly obtained using the non-inactivated protocol only. IC50 values are shown for various compounds of the invention in Table 4.

The next experiment relates to rat formalin model. In words: Formalin-induced pain model. In kind it is in vivo. To be noted: 30 mg/kg IP, 10 minutes prior to formalin, saline control=100%. Here is the method: The effects of intrathecally delivered compounds of the invention on the rat formalin model were measured. The compounds were reconstituted to stock solutions of approximately 10 mg/ml in propylene glycol. Eight Holtzman male rats of 275-375 g size were randomly selected per test article.
The following study groups were used, with test article, vehicle control (propylene glycol) and saline delivered intraperitoneally (IP):
Prior to initiation of drug delivery baseline behavioral and testing data were taken.
On the morning of testing, a small metal band (0.5 g) was loosely placed around the right hind paw. The rat was placed in a cylindrical Plexiglas chamber for adaptation a minimum of 30 minutes. Test Article or Vehicle Control Article was administered 10 minutes prior to formalin injection (50 μl of 5% formalin) into the dorsal surface of the right hindpaw of the rat. The animal was then placed into the chamber of the automated formalin apparatus where movement of the formalin injected paw was monitored and the number of paw flinches tallied by minute over the next 60 minutes (Malmberg, A. B., et al., Anesthesiology (1993) 79:270-281).
Results are presented as Maximum Possible Effect±SEM, where saline control=100%.

Experiment [3] deals with spinal nerve ligation (SNL) injury. In words: Spinal nerve ligation (SNL) model of neuropathic pain, thermal hyperalgesia. Format: in vivo. The following applies: rat SNL, 30 mg/kg orally in propylene glycol. The source says: Spinal nerve ligation (SNL) injury was induced using the procedure of Kim and Chung, (Kim and Chung 1992) in male Sprague-Dawley rats (Harlan; Indianapolis, Ind.) weighing 200 to 300 grams. Anesthesia was induced with 2% halothane in O2 at 2 L/min and maintained with 0.5% halothane in O2. After surgical preparation of the rats and exposure of the dorsal vertebral column from L4 to S2, the L5 and L6 spinal nerves were tightly ligated distal to the dorsal root ganglion using 4-0 silk suture. The incision was closed, and the animals were allowed to recover for 5 days. […] Sham control rats underwent the same operation and handling as the experimental animals, but without SNL.
The method of Hargreaves and colleagues (Hargreaves, et al., 1988) was employed to access paw-withdrawal latency to a thermal nociceptive stimulus. Rats were allowed to acclimate within a plexiglas enclosure on a clear glass plate maintained at 30° C. A radiant heat source (i.e., high intensity projector lamp) was activated with a timer and focused onto the plantar surface of the affected paw of nerve-injured or carrageenan-injected rats. Paw-withdrawal latency was determined by a photocell that halted both lamp and timer when the paw was withdrawn. The latency to withdrawal of the paw from the radiant heat source was determined prior to carrageenan or […], 3 hours after carrageenan or 7 days after L5/L6 SNL but before drug and after drug ministration. A maximal cut-off of 40 seconds was Employed to prevent tissue damage. Paw withdrawal latencies were thus determined to the Nearest 0.1 second. Reversal of thermal hyperalgesia was indicated by a return of the paw Withdrawal latencies to the pre-treatment baseline latencies (i.e., 21 seconds). Anti nociception Was indicated by a significant (p <0.05) increase in paw withdrawal latency above this baseline. Data were converted to % anti hyperalgesia by the formula: (100qx (test latency−baseline latency)/(cut-off−baseline latency) where cut-off was 21 seconds for determining anti hyperalgesia.
Compound 7 was administered orally in propylene glycol solution at a dose of 30 mg/kg. The percent activity was calculated for thermal hyperalgesia.

Experiment [4] deals with T-type over L-type channels. To be noted: cited from earlier work.

T1 sequence (Q02294 whole entry): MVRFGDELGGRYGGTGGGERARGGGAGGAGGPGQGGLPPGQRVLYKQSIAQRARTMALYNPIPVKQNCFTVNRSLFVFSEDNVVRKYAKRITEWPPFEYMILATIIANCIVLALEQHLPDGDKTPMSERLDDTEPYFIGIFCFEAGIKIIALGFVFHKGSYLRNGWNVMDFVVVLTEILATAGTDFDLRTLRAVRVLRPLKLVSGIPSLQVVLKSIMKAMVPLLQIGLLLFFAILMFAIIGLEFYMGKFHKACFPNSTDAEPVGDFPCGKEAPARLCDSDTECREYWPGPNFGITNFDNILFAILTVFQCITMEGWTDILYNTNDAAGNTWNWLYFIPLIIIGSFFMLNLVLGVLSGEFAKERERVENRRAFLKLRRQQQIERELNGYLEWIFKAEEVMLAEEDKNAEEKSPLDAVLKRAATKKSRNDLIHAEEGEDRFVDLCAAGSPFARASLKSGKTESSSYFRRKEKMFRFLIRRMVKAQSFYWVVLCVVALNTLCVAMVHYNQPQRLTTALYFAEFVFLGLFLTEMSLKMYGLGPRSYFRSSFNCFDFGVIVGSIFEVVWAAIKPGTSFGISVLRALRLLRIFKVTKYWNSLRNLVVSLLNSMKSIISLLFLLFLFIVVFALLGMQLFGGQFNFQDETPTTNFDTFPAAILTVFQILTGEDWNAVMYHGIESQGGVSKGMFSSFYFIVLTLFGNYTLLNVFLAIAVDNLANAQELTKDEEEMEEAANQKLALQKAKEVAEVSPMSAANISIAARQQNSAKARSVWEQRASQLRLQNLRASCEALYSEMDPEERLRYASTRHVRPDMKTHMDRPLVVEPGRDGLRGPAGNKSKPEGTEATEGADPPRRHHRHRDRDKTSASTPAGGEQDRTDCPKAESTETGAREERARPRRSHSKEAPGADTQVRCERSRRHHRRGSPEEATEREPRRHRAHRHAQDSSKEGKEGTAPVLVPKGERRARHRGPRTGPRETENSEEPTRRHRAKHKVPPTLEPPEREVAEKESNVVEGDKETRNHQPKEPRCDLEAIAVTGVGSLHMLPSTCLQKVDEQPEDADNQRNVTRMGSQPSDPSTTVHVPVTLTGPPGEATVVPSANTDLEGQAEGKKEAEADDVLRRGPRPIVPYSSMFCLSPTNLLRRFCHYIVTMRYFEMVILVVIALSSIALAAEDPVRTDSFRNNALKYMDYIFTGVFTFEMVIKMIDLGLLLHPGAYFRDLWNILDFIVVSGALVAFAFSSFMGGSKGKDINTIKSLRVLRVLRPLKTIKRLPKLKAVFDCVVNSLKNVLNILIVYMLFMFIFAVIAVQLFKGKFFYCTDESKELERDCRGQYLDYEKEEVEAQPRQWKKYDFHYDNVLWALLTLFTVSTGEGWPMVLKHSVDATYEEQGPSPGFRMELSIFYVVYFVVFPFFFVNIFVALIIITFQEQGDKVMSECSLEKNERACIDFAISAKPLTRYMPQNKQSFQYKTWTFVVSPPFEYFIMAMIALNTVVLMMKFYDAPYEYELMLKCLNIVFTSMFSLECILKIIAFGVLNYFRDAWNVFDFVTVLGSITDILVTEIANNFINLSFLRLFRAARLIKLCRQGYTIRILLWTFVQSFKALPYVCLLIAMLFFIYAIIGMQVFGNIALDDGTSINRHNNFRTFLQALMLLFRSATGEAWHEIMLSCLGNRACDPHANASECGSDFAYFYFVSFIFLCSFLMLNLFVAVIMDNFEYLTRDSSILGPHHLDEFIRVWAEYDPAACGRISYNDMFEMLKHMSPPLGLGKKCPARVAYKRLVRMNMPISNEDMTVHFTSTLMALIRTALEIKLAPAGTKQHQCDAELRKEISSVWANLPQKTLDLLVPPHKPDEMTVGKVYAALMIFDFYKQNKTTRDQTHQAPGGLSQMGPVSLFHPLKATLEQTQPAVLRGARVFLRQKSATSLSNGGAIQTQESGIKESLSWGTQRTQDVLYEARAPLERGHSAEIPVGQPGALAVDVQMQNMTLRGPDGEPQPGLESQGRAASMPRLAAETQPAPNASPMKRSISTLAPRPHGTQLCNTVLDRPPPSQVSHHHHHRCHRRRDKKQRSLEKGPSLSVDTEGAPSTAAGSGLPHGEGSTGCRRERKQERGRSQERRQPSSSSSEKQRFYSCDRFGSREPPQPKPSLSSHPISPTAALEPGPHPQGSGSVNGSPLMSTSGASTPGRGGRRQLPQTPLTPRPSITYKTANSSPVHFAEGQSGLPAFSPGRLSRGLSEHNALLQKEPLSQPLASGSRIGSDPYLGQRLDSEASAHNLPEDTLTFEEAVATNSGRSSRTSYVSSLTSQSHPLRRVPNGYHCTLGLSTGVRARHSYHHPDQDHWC
T1 sequence (P54290 25-944 partner limits assumed): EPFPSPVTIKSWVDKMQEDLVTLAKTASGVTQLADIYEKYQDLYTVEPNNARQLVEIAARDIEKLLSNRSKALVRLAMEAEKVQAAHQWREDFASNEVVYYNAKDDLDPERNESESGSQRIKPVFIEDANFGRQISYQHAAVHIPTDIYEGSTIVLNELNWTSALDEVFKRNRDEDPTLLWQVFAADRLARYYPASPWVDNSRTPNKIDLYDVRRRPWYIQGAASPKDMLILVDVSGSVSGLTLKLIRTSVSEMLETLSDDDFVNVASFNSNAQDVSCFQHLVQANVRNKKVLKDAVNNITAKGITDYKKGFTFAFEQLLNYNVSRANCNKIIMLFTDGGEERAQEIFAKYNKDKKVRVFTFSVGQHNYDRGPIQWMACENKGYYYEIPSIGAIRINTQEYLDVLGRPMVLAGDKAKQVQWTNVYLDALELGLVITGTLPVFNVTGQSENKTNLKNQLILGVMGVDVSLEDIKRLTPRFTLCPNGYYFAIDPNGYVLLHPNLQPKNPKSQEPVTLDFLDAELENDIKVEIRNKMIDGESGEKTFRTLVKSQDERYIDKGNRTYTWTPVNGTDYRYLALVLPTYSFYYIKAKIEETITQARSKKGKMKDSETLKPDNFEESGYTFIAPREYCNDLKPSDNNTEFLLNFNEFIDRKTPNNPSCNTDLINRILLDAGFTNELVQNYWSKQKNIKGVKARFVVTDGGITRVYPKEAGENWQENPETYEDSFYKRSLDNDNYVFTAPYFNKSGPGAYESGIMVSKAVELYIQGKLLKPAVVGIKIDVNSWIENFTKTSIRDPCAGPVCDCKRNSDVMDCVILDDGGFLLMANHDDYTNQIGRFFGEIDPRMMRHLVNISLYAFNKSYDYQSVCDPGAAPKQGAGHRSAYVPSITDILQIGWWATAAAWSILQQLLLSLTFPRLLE
T1 sequence (P54290 945-1091 partner limits assumed): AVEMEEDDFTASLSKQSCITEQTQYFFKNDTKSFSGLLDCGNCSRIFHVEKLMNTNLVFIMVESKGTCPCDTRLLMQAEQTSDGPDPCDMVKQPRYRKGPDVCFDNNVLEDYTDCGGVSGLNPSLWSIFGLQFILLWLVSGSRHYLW
T1 sequence (P54283 whole entry partner): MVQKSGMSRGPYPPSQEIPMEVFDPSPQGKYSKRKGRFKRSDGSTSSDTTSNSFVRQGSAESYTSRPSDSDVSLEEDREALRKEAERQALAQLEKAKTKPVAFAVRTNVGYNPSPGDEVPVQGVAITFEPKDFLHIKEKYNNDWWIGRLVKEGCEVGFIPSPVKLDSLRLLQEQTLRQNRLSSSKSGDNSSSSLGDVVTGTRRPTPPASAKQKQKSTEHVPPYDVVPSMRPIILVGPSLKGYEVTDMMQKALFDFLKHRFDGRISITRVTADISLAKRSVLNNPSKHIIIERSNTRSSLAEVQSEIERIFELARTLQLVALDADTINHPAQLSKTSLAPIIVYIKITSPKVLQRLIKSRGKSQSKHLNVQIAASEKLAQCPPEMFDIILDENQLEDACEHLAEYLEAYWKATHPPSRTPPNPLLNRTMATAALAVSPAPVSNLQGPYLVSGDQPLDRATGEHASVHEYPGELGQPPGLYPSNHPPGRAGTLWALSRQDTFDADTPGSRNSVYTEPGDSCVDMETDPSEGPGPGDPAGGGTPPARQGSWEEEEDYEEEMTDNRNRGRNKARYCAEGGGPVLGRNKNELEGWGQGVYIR

Usually IC50 stands for the concentration that gives 50% inhibition. For the compound `O=C(CN(c1ccccc1)c1ccccc1)N1CCN(C(c2ccccc2)c2cccc(Cl)c2Cl)CC1` (centres unmarked) [Compound 7, 1-{4-[(2,3-Dichloro-phenyl)-phenyl-methyl]-piperazin-1-yl}-2-diphenylamino-ethanone], the IC50 in experiment [1] (low frequency stimulation 0.067 Hz (tonic block), read-out: IC50 @ 0.067 Hz) was found to be 180 nM; in experiment [1] (pulse frequency 0.2 Hz (frequency dependent block), read-out: IC50 @ 0.2 Hz), 140 nM; in experiment [2] (−80 mV (inactivation protocol, voltage-dependent block), read-out: IC50 - 80 mV) it was 1000 nM; in experiment [2] (−100 mV pre-pulse (non-inactivating protocol, resting block), read-out: IC50 - 100 mV), 1000 nM. Moreover, the “Maximum Possible Effect±SEM, Phase II Total” value in the experiment with rat formalin model came to 63 ± 10%. For the same compound, in the experiment with rat formalin model, the “Maximum Possible Effect±SEM, Phase IIB” value stood at 64 ± 11%. Also, the “Thermal Hyperalgesia (% Activity)” value in experiment [3] (30 min) came to 38.45 ± 18.52%; in experiment [3] (60 min) it was 78.54 ± 10.74%; in experiment [3] (90 min), 40.21 ± 17.08%; in experiment [3] (120 min) it was 20.98 ± 10.36%.
`COCC(=O)O[C@]1(CCN(C)CCCc2nc3ccccc3[nH]2)CCc2cc(F)ccc2[C@@H]1C(C)C` [Mibefradil]: the “selective for T-type over L-type channels” value in experiment [4] was 10-30 fold.
